Source: paper PMC4805251, “Novel Antimicrobial Peptides EeCentrocins 1, 2 and EeStrongylocin 2 from the Edible Sea Urchin Echinus esculentus Have 6-Br-Trp Post-Translational Modifications” (PLoS ONE, 2016)
Several values for one entry are separate records, joined by “and”; a condition that tells them apart may be missing. Equal entries are not always repeated. Where two headings read alike, the source gives them in different places. Ends that are not written are not given here.

Legend:
Type in all cases: cell-based
[1] = tested on: human red blood cells; experiment: Haemolytic activity assay; settings: human red blood cells in PBS, 1 h at 37°C, absorbance at 550 nm, 0.05% Triton X-100 = 100%, duplicates
Method: Synthesised peptide analogues of EeCentrocin 1 and 2 were screened for eukaryotic cell-toxicity with a haemolytic activity assay using human red blood cells as described previously. The assay was performed on 96-well U-shaped microtiter plates (Nagle Nunc) with 50 μl peptide sample, 40 μl phosphate-buffered saline (PBS) and 10 μl red blood cells. The final peptide concentrations ranged from 100 to 0.1 μM in two-fold serial dilutions. After one hour of incubation at 37°C in a shaker, the plate was centrifuged at 200 g for 5 min and the supernatants (60 μl) were carefully transferred to a new flat-bottomed polycarbonate microtiter plate (Nagle Nunc) and absorbance at 550 nm was measured on a Synergy H1 multimode reader (BioTek, VT, USA). Cell suspension added 0.05% Triton X-100 (Sigma-Aldrich, MO, USA) in PBS served as positive (100% haemolysis) control and cell suspension added PBS served as negative (0% haemolysis) control. The percent haemolysis was calculated using the formula [(Asample-Abaseline)/(Atriton-Abaseline)]×100. The experiment was performed in duplicates.

[2] = tested on: Bacillus subtilis (ATCC 23857)
In short: (§1)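 Broth microdilution in Müller-Hinton medium: 2-h subcultured bacteria diluted to 1.3–1.5 × 10^4 bacteria/ml final, mixed with test samples, incubated 24 h at 35°C with hourly OD595. MIC is the lowest concentration giving >90% inhibition versus water growth controls; oxytetracycline (20 μM) served as positive control.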

[3] = tested on: Staphylococcus aureus (ATCC 9144)
In short: as §1

[4] = tested on: P. aeruginosa #2, PA 01 (ATCC 15692, DSM 19880)
In short: as §1

[5] = tested on: E. coli #2, NR 698 (MC4100/ptD4213)
In short: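 Colonies were grown overnight in Müller-Hinton broth, subcultured 2 h, then diluted to 1.3–1.5 × 10^4 bacteria/ml and added to serially diluted samples. Plates were incubated 24 h at 35°C while OD595 was recorded hourly, and MIC was taken as the lowest concentration inhibiting growth by >90%.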

[6] = tested on: S. epidermidis #1 (5179-R1)
In short: as §1

[7] = tested on: Corynebacterium glutamicum (ATCC 13032)
In short: as §1

[8] = tested on: Pseudomonas aeruginosa #1 (ATCC 27853)
In short: as §1

[9] = tested on: Escherichia coli #1 (ATCC 25922)
In short: as §1

[10] = tested on: S. epidermidis #2, RP62A (ATCC 35984)
In short: as §1

[11] = MH medium, 24 h at 35°C, OD595, lowest concentration with >90% inhibition, value of Table 2, native peptides run once, synthetic in triplicates
[12] = MH medium, 24 h at 35°C, OD595, >90% inhibition, value of Table 2, triplicates
[13] = MH medium, 24 h at 35°C, OD595, >90% inhibition, value of Table 2, native peptides run once, synthetic in triplicates

WGHKLRSSWNKVKHAVKKGAGYASGACRVLGH [EeCentrocin 2 HC]
% haemolysis ([1]; 25.0 μM): 11.7%
% haemolysis ([1]; 50.0 μM): 18.9%
% haemolysis ([1]; 100 μM): 56.3% and 56.4%
MIC B. subtilis ([2]; MH medium, 24 h at 35°C, OD595, lowest concentration with >90% inhibition, value of Table 2, synthetic peptides in triplicates): 6.25 µM
MIC raw data B. subtilis ([2]; parallel 1 of three): 6.25 µM
MIC raw data B. subtilis ([2]; parallel 2 of three): 3.13 µM
MIC raw data B. subtilis ([2]; parallel 3 of three): 3.13 µM
MIC S. aureus [3, 11]: 6.25 µM
MIC raw data S. aureus ([3]; parallel 1 of three): 6.25 µM
MIC raw data S. aureus ([3]; parallel 2 of three): 6.25 µM
MIC raw data S. aureus ([3]; parallel 3 of three): 6.25 µM
MIC P. aeruginosa #2 [4, 12]: 6.25 µM
MIC raw data P. aeruginosa #2 ([4]; parallel 1 of three): 6.25 µM
MIC raw data P. aeruginosa #2 ([4]; parallel 2 of three): 6.25 µM
MIC raw data P. aeruginosa #2 ([4]; parallel 3 of three): 3.13 µM
MIC E. coli #2 [5, 12]: 6.25 µM
MIC raw data E. coli #2 ([5]; parallel 1 of three): 6.25 µM
MIC raw data E. coli #2 ([5]; parallel 2 of three): 3.13 µM
MIC raw data E. coli #2 ([5]; parallel 3 of three): 3.13 µM
MIC S. epidermidis #1 [6, 12]: 3.13 µM
MIC raw data S. epidermidis #1 ([6]; parallel 1 of three): 3.13 µM
MIC raw data S. epidermidis #1 ([6]; parallel 2 of three): 3.13 µM
MIC raw data S. epidermidis #1 ([6]; parallel 3 of three): 1.56 µM
MIC C. glutamicum [7, 11]: 0.78 µM
MIC raw data C. glutamicum ([7]; parallel 1 of three): 0.78 µM
MIC raw data C. glutamicum ([7]; parallel 2 of three): 0.78 µM
MIC raw data C. glutamicum ([7]; parallel 3 of three): 0.78 µM
MIC P. aeruginosa #1 [8, 13]: 0.78 µM
MIC raw data P. aeruginosa #1 ([8]; parallel 1 of three): 0.78 µM
MIC raw data P. aeruginosa #1 ([8]; parallel 2 of three): 0.78 µM
MIC raw data P. aeruginosa #1 ([8]; parallel 3 of three): 0.78 µM
MIC E. coli #1 [9, 13]: 1.56 µM
MIC raw data E. coli #1 ([9]; parallel 1 of three): 1.56 µM
MIC raw data E. coli #1 ([9]; parallel 2 of three): 0.78 µM
MIC raw data E. coli #1 ([9]; parallel 3 of three): 0.78 µM
MIC S. epidermidis #2 [10, 12]: 3.13 µM
MIC raw data S. epidermidis #2 ([10]; parallel 1 of three): 3.13 µM
MIC raw data S. epidermidis #2 ([10]; parallel 2 of three): 3.13 µM
MIC raw data S. epidermidis #2 ([10]; parallel 3 of three): 3.13 µM
